Tested on: patients with cGVHD
Procedure: All responses were assessed by the investigators.
Reported Adverse Events. […] All-cause mortality data collected during the study were assessed for all enrolled participants. Disease progression related death was not reported as AE.
Number of Participants With Treatment-emergent Adverse Events (TEAEs), and Treatment-emergent Serious Adverse Events (TESAEs). […] TEAEs included both SAEs and non-SAEs. […] Analysis was performed on safety population which included all participants who received at least 1 dose of study medication.

CC(C)NC(=O)COc1cccc(-c2nc(Nc3ccc4[nH]ncc4c3)c3ccccc3n2)c1 [Belumosudil, 2-{3-[4-(1H-indazol-5-ylamino)-2-quinazolinyl]phenoxy}-N-(propan-2-yl) acetamide]
16 (100): Any AE, No. (%) (Cohort 2 200 mg BID)
2/16 (12.5%): Abdominal pain: Affected/At Risk (%) (Cohort 2 200 mg BID) | Acute kidney injury: Affected/At Risk (%) (Cohort 2 200 mg BID) | Anxiety: Affected/At Risk (%) (Cohort 2 200 mg BID) | Aspartate aminotransferase increased: Affected/At Risk (%) (Cohort 2 200 mg BID) | Back pain: Affected/At Risk (%) (Cohort 2 200 mg BID) | Blister: Affected/At Risk (%) (Cohort 2 200 mg BID)
5 (31): All grade ALT/AST increased, No. (%) (Cohort 2 200 mg BID) | All grade Diarrhea, No. (%) (Cohort 2 200 mg BID)
3/16 (18.75%): Alanine aminotransferase increased: Affected/At Risk (%) (Cohort 2 200 mg BID)
8: Anaemia: # Events (Cohort 2 200 mg BID)
3/16: All-Cause Mortality, Affected/At Risk (Cohort 2 200 mg BID)
(18.75%): All-Cause Mortality, % (Cohort 2 200 mg BID)
9: Weight increased: # Events (Cohort 1 200 mg QD)
1: Weight decreased: # Events (Cohort 1 200 mg QD) | White blood cell count decreased: # Events (Cohort 1 200 mg QD) | Abdominal pain upper: # Events (Cohort 2 200 mg BID) | Actinic keratosis: # Events (Cohort 2 200 mg BID) | Arthralgia: # Events (Cohort 2 200 mg BID) | Asthenia: # Events (Cohort 2 200 mg BID) | Balance disorder: # Events (Cohort 2 200 mg BID) | Basal cell carcinoma: # Events (Cohort 2 200 mg BID) | Blood alkaline phosphatase increased: # Events (Cohort 2 200 mg BID) | Blood chloride decreased: # Events (Cohort 2 200 mg BID) | Blood creatine increased: # Events (Cohort 2 200 mg BID) | Blood creatinine increased: # Events (Cohort 2 200 mg BID) | Bronchial secretion retention: # Events (Cohort 2 200 mg BID)
2/17 (11.76%): Vertigo: Affected/At Risk (%) (Cohort 1 200 mg QD) | Vomiting: Affected/At Risk (%) (Cohort 1 200 mg QD)
9 (56): All grade URI, No. (%) (Cohort 2 200 mg BID)
2: Vertigo: # Events (Cohort 1 200 mg QD) | Acute kidney injury: # Events (Cohort 2 200 mg BID) | Aspartate aminotransferase increased: # Events (Cohort 2 200 mg BID) | Back pain: # Events (Cohort 2 200 mg BID)
4: Vomiting: # Events (Cohort 1 200 mg QD) | Abdominal pain: # Events (Cohort 2 200 mg BID) | Alanine aminotransferase increased: # Events (Cohort 2 200 mg BID)
1/17 (5.88%): Weight decreased: Affected/At Risk (%) (Cohort 1 200 mg QD) | White blood cell count decreased: Affected/At Risk (%) (Cohort 1 200 mg QD)
3: Anxiety: # Events (Cohort 2 200 mg BID) | Blister: # Events (Cohort 2 200 mg BID)
1/16 (6.25%): Abdominal pain upper: Affected/At Risk (%) (Cohort 2 200 mg BID) | Actinic keratosis: Affected/At Risk (%) (Cohort 2 200 mg BID) | Arthralgia: Affected/At Risk (%) (Cohort 2 200 mg BID) | Asthenia: Affected/At Risk (%) (Cohort 2 200 mg BID) | Balance disorder: Affected/At Risk (%) (Cohort 2 200 mg BID) | Basal cell carcinoma: Affected/At Risk (%) (Cohort 2 200 mg BID) | Blood alkaline phosphatase increased: Affected/At Risk (%) (Cohort 2 200 mg BID) | Blood chloride decreased: Affected/At Risk (%) (Cohort 2 200 mg BID) | Blood creatine increased: Affected/At Risk (%) (Cohort 2 200 mg BID) | Blood creatinine increased: Affected/At Risk (%) (Cohort 2 200 mg BID) | Bronchial secretion retention: Affected/At Risk (%) (Cohort 2 200 mg BID)
0/16 (0%): Abdominal distension: Affected/At Risk (%) (Cohort 2 200 mg BID) | Acute respiratory distress syndrome: Affected/At Risk (%) (Cohort 2 200 mg BID) | Adrenal insufficiency: Affected/At Risk (%) (Cohort 2 200 mg BID) | Anal incontinence: Affected/At Risk (%) (Cohort 2 200 mg BID) | Atelectasis: Affected/At Risk (%) (Cohort 2 200 mg BID) | Benign prostatic hyperplasia: Affected/At Risk (%) (Cohort 2 200 mg BID) | Blepharitis: Affected/At Risk (%) (Cohort 2 200 mg BID) | Blood cholesterol increased: Affected/At Risk (%) (Cohort 2 200 mg BID) | Blood creatine phosphokinase increased: Affected/At Risk (%) (Cohort 2 200 mg BID) | Blood loss anaemia: Affected/At Risk (%) (Cohort 2 200 mg BID) | Bronchitis: Affected/At Risk (%) (Cohort 2 200 mg BID)
6 (38): All grade Dyspnea, No. (%) (Cohort 2 200 mg BID)
4 (25): All grade Cough, No. (%) (Cohort 2 200 mg BID) | All grade Nausea, No. (%) (Cohort 2 200 mg BID) | All grade Peripheral edema, No. (%) (Cohort 2 200 mg BID)
3/17 (17.65%): Weight increased: Affected/At Risk (%) (Cohort 1 200 mg QD)
2 (13): All grade Hypertension, No. (%) (Cohort 2 200 mg BID)
4/16 (25%): Anaemia: Affected/At Risk (%) (Cohort 2 200 mg BID)
3 (19): All grade Fatigue, No. (%) (Cohort 2 200 mg BID) | All grade Headache, No. (%) (Cohort 2 200 mg BID)
0: Vision blurred: # Events (Cohort 1 200 mg QD) | Abdominal distension: # Events (Cohort 2 200 mg BID) | Acute respiratory distress syndrome: # Events (Cohort 2 200 mg BID) | Adrenal insufficiency: # Events (Cohort 2 200 mg BID) | Anal incontinence: # Events (Cohort 2 200 mg BID) | Atelectasis: # Events (Cohort 2 200 mg BID) | Benign prostatic hyperplasia: # Events (Cohort 2 200 mg BID) | Blepharitis: # Events (Cohort 2 200 mg BID) | Blood cholesterol increased: # Events (Cohort 2 200 mg BID) | Blood creatine phosphokinase increased: # Events (Cohort 2 200 mg BID) | Blood loss anaemia: # Events (Cohort 2 200 mg BID) | Bronchitis: # Events (Cohort 2 200 mg BID)
0/17 (0%): Vision blurred: Affected/At Risk (%) (Cohort 1 200 mg QD)

From patent publication US20260027116A1, “Methods of Treating Chronic Graft-Versus-Host Disease Following Allogeneic Hematopoietic Stem Cell Transplantation” (Kadmon Corporation, LLC, priority 2022, published 2026)
